This is an account of results in patent publication US12358932B2, “Chemical compounds” (BORAH, INC., priority 2019, dated 2025).

T1 sequence (Q07343 305-736 limits assumed): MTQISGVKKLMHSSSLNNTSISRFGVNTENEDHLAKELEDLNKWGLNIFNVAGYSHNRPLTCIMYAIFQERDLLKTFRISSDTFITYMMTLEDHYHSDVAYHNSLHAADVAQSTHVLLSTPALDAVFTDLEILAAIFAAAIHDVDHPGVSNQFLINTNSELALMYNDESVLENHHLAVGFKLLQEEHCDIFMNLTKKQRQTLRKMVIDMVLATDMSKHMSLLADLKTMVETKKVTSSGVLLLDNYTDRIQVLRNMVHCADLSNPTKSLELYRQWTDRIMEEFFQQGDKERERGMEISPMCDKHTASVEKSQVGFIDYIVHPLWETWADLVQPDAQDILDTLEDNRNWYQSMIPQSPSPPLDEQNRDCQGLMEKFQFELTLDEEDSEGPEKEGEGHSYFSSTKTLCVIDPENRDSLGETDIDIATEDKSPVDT

The first assay has as its system JAK. As to the kind of experiment: Biochemical Kinase Assay Protocol (JAK). The following applies: compared to compounds of the disclosure. How it is done: Biochemical Kinase Assay Protocol (JAK, TrkA, Syk, Tyk2)
Reagent: Base Reaction buffer; 20 mM Hepes (pH 7.5), 10 mM MgCl2, 1 mM EGTA, 0.02% Brij™ 35, 0.02 mg/ml BSA, 0.1 mM Na3VO4, 2 mM DTT, 1% DMSO, where required cofactors are added individually to each kinase reaction.
• 1. Prepare indicated substrate in freshly prepared Base Reaction Buffer • 2. Deliver any required cofactors to the substrate solution above • 3. Deliver indicated kinase (JAK or TrkA) into the substrate solution and gently mix • 4. Deliver compounds in DMSO into the kinase reaction mixture by Acoustic technology (Echo550; nanoliter range), incubate for 20 minutes at room temperature • 5. Deliver 33P-ATP into the reaction mixture to initiate the reaction. • 6. Incubate kinase reaction for 2 hours at room temperature • 7. Reactions are spotted onto P81 ion exchange paper • 8. Detect kinase activity by filter-binding method. PDE4B Phosphodiesterase Assay
Take `Cc1cnc(N(C)c2ccc3c(c2)COB3O)nc1OC1CCCCC1` [A, 5-((4-(cyclohexyloxy)-5-methylpyrimidin-2-yl)(methyl)amino)benzo[c][1,2]oxaborol-1(3H)-ol, reference compound]: the JAK activity entry is on record as “no JAK activity or significantly decreased JAK activity”.
The same measure, in the same setting: next, `Cc1cnc(N(C)c2ccc3c(c2)COB3O)nc1NC1CCCC1` [B, 5-((4-(cyclopentylamino)-5-methylpyrimidin-2-yl)(methyl)amino)benzo[c][1,2]oxaborol-1(3H)-ol, reference compound]: “no JAK activity or significantly decreased JAK activity”.

Still in this assay, the particulars now being: compound list; + = noted target activity, number of * = preference.
Regarding `Cc1cnc(Nc2ccc3c(c2)C(C)(C)OB3O)nc1Nc1ccccc1` [3,3-dimethyl-5-((5-methyl-4-(phenylamino)pyrimidin-2-yl)amino)benzo[c][1,2]oxaborol-1(3H)-ol], the “Activity Note: JAK” value is recorded as “JAK+***”.
As for `Cc1cc(Nc2ncc(Cl)c(NC3CCCC3)n2)cc2c1B(O)OC2` [5-((5-chloro-4-(cyclopentylamino)pyrimidin-2-yl)amino)-7-methylbenzo[c][1,2]oxaborol-1(3H)-ol], the “Activity Note: JAK” value is given as “JAK+***”.
On to `Cc1cnc(Nc2ccc3c(c2)B(O)OC3)nc1NC1CCN(C)CC1` [6-((5-methyl-4-((1-methylpiperidin-4-yl)amino)pyrimidin-2-yl)amino)benzo[c][1,2]oxaborol-1(3H)-ol], for which the “Activity Note: JAK” value was “JAK+*”.
Still for that read-out and setting: the entry for `CC1(C)OB(O)c2ccc(Nc3ncc(Cl)c(NC4CCCC4)n3)cc21` [5-((5-chloro-4-(cyclopentylamino)pyrimidin-2-yl)amino)-3,3-dimethylbenzo[c][1,2]oxaborol-1(3H)-ol] is “JAK+***”; for `CCc1cc(Nc2ncc(C)c(Nc3ccccc3)n2)cc2c1B(O)OC2` [7-ethyl-5-((5-methyl-4-(phenylamino)pyrimidin-2-yl)amino)benzo[c][1,2]oxaborol-1(3H)-ol] it is “JAK+***”; for `Cc1cnc(Nc2ccc3c(c2)B(O)OC3)nc1N[C@H]1CC[C@H](CO)CC1` [6-((4-(((1r,4r)-4-(hydroxymethyl)cyclohexyl)amino)-5-methylpyrimidin-2-yl)amino)benzo[c][1,2]oxaborol-1(3H)-ol] it is “JAK+*”.
On the same count and under the same terms, the entry for `OB1OCc2cc(Nc3ncc(Cl)c(NC4CCCC4)n3)cc(C(F)(F)F)c21` [5-((5-chloro-4-(cyclopentylamino)pyrimidin-2-yl)amino)-7-(trifluoromethyl)benzo[c][1,2]oxaborol-1(3H)-ol] is “JAK+***”.
Still for that read-out and setting: next, `CCCNc1nc(Nc2ccc3c(c2)B(O)OC3)ncc1I` [6-((5-iodo-4-(propylamino)pyrimidin-2-yl)amino)benzo[c][1,2]oxaborol-1(3H)-ol]: “JAK+*”; `CC1OB(O)c2ccc(Nc3ncc(Cl)c(NC4CCCC4)n3)cc21` (stereo not shown) [5-((5-chloro-4-(cyclopentylamino)pyrimidin-2-yl)amino)-3-methylbenzo[c][1,2]oxaborol-1(3H)-ol]: “JAK+***”; `Cc1cnc(Nc2ccc3c(c2)C(C)(C)OB3O)nc1NC1CCCC1` [5-((4-(cyclopentylamino)-5-methylpyrimidin-2-yl)amino)-3,3-dimethylbenzo[c][1,2]oxaborol-1(3H)-ol]: “JAK+***”.
`CCc1cc(Nc2ncc(C)c(NC(CC)CC)n2)cc2c1B(O)OC2` [7-ethyl-5-((5-methyl-4-(pentan-3-ylamino)pyrimidin-2-yl)amino)benzo[c][1,2]oxaborol-1(3H)-ol]: the “Activity Note: JAK” value is given as “JAK+***”.
On to `CCc1cc(Nc2nccc(NC3CCCC3)n2)cc2c1B(O)OC2` [5-((4-(cyclopentylamino)pyrimidin-2-yl)amino)-7-ethylbenzo[c][1,2]oxaborol-1(3H)-ol], for which the “Activity Note: JAK” value is recorded as “JAK+**”.
Same read-out and setting: the entry for `Cc1cnc(Nc2cc(C)c3c(c2)COB3O)nc1Nc1ccccc1` [7-methyl-5-((5-methyl-4-(phenylamino)pyrimidin-2-yl)amino)benzo[c][1,2]oxaborol-1(3H)-ol] is “JAK+***”.
For `Cc1cnc(Nc2cc(Cl)c3c(c2)C(C)(C)OB3O)nc1Nc1ccccc1` [7-chloro-3,3-dimethyl-5-((5-methyl-4-(phenylamino)pyrimidin-2-yl)amino)benzo[c][1,2]oxaborol-1(3H)-ol], the “Activity Note: JAK” value was “JAK+***”.
Turning to `CCC(CC)Nc1nc(Nc2ccc3c(c2)B(O)OC3)ncc1C` [6-((5-methyl-4-(pentan-3-ylamino)pyrimidin-2-yl)amino)benzo[c][1,2]oxaborol-1(3H)-ol], the “Activity Note: JAK” value is “JAK+*”.
Same read-out and setting: the entry for `COc1cc(Nc2ncc(C)c(SC)n2)cc2c1B(O)OC2` [7-methoxy-5-((5-methyl-4-(methylthio)pyrimidin-2-yl)amino)benzo[c][1,2]oxaborol-1(3H)-ol] is “JAK+**”; for `Cc1cnc(Nc2ccc3c(c2)B(O)OC3)nc1NC1CCC(C)CC1` (stereo not shown) [6-((5-methyl-4-((4-methylcyclohexyl)amino)pyrimidin-2-yl)amino)benzo[c][1,2]oxaborol-1(3H)-ol] it is “JAK+**”; for `CCC(CC)Nc1nc(Nc2cc(C)c3c(c2)COB3O)ncc1C` [7-methyl-5-((5-methyl-4-(pentan-3-ylamino)pyrimidin-2-yl)amino)benzo[c][1,2]oxaborol-1(3H)-ol] it is “JAK+***”.
For `Cc1cnc(Nc2cc(C)c3c(c2)C(C)(C)OB3O)nc1Nc1ccccc1` [3,3,7-trimethyl-5-((5-methyl-4-(phenylamino)pyrimidin-2-yl)amino)benzo[c][1,2]oxaborol-1(3H)-ol], the “Activity Note: JAK” value is listed as “JAK+***”.
On the same count and under the same terms, the entry for `Cc1cnc(Nc2cc(C)c3c(c2)COB3O)nc1NC1CCCC1` [5-((4-(cyclopentylamino)-5-methylpyrimidin-2-yl)amino)-7-methylbenzo[c][1,2]oxaborol-1(3H)-ol] is “JAK+***”; for `Cc1cnc(Nc2cc(Cl)c3c(c2)COB3O)nc1Nc1ccccc1` [7-chloro-5-((5-methyl-4-(phenylamino)pyrimidin-2-yl)amino)benzo[c][1,2]oxaborol-1(3H)-ol] it is “JAK+***”.

Another assay has as its target T1, Recombinant human PDE4B (Homo sapiens, UniProt Q07343).
T1 construct: aa 305-end; GST (N); made in house; host or cells: Sf9 insect cells (baculovirus)
Kind of assay: PDE4B Phosphodiesterase Assay. The format is biochemical. The following applies: compared to compounds of the disclosure. A digest of the protocol: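 N-terminal GST-tagged human PDE4B (aa 305-end, Sf9-expressed) preincubated 10 min with compound in 10 mM Tris-HCl pH 7.5, 5 mM MgCl2, 0.01% Brij 35, 1 mM DTT, 1% DMSO, then 1 h at room temperature with 1 μM cAMP. AMP detected by Transcreener fluorescence polarization (Ex/Em 620/688), converted to nM product; % activity relative to DMSO.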
Consider `Cc1cnc(N(C)c2ccc3c(c2)COB3O)nc1OC1CCCCC1` [A, 5-((4-(cyclohexyloxy)-5-methylpyrimidin-2-yl)(methyl)amino)benzo[c][1,2]oxaborol-1(3H)-ol, reference compound], for which the PDE4 activity result is “diminish in PDE4 activity”.
On the same count and under the same terms, next, `Cc1cnc(N(C)c2ccc3c(c2)COB3O)nc1NC1CCCC1` [B, 5-((4-(cyclopentylamino)-5-methylpyrimidin-2-yl)(methyl)amino)benzo[c][1,2]oxaborol-1(3H)-ol, reference compound]: “diminish in PDE4 activity”.
